Tests used:
NOTCH1-induced T-ALL = test: Mouse model of Notch-ICN (NOTCH1)-induced T-ALL, adoptive transfer of transduced HPCs; assay type: in vivo; details: HPCs expressing NOTCH1-ICN plus miRNA or shRNA transplanted into irradiated recipients
Protocol: Can miR-19 drive the development of lymphatic malignancies in vivo? Based on the miR-19 expression and translocation data, miR-19 was assessed in a mouse model of T-ALL (Pear, et al., 1996). Briefly, most cases of T-ALL carry mutations in the Notch1 gene, and, like the […] translocation, these generate the constitutively active intracellular domain of NOTCH1 (Notch-ICN) (Weng, et al., 2004). To test miR-19's ability to promote Notch-ICN-induced T-ALL in vivo, HPCs were adoptively transferred into irradiated recipients (FIG. 3d). […] At the same time, 80% of the mice receiving HPCs expressing only Notch-ICN remained disease free (p=0.0003) (FIG. 3e).
The mouse models of Notch1-induced T-ALL and the EμMyc lymphoma based on adoptive transfer of retrovirally transduced HPCs have been reported (Pear, et al., 1996), (Wendel, et al., 2004). Data were analyzed in Kaplan-Meier format using the log-rank (Mantel-Cox) test for statistical significance. The p53 loss of heterozygosity polymerase chain reaction (LOH PCR) and immunophenotyping by surface marker analysis were as described (Wendel, et al., 2004).
A murine model of NOTCH1-induced T-ALL was used to directly test the oncogenic potential of the most promising miRNAs in vivo. Briefly, HPCs were transduced with NOTCH1 together with either empty vector or an miRNA and transplanted into irradiated, syngeneic recipients. Animals were monitored for leukemia onset by regular blood counts (FIG. 22a). […] Typically, animals receiving HPCs transduced with these miRNAs develop an acute leukemia by 75 days, while >80% of vector controls or animals receiving miR-30 (n=5, p=0.15) remain disease free at this time (FIG. 22b). Based on the in vitro screen and prediction, additional miRNAs were tested. […] Thus, miR-19b, miR-20a, miR-26a, miR-223 and also the less abundant miR-27a and miR-148/152 behave as oncogenes in a murine T-ALL model.
The mouse T-ALL model has been reported (Pear, et al., 1996), (Wendel, et al., 2004). Data were analyzed in Kaplan-Meier format using the log-rank (Mantel-Cox) test for statistical significance. […]

[1] = system: PTEN, BCL2L11, PHF6, IKZF1, NF1, FBXW7; test: 3′UTR reporter, quantitative PCR and immunoblot assays of tumor suppressor genes in murine leukemias; assay type: cell-based; details: murine T-ALLs expressing NOTCH1 and miRNA, mRNA, protein
Protocol: Immunoblots of whole cell lysates were performed as described (Wendel, et al., 2004). Antibodies were against Bim/Bcl2l11 (AAP-330, 1:1000, Assay Designs), Nf1 (sc67, 1:100, Santa Cruz), Cdc4/Fbxw7 (ab7405, 1:500, Abeam), Ikzf1 (sc-13039, 1:500, Santa Cruz), Phf6 (NB100-79861, 1:1000, Novus Biologicals), Pten (9559, 1:1000, Cell Signaling), tubulin (1:5000; Sigma, B-5-1-2) and actin (1:5000; Sigma, AC-15).
Total RNA and miRNA-enriched RNA was extracted using the Allprep DNA/RNA/Protein and miRNeasy Mini kits. Pathological diagnosis was by expert hematopathologists at Weill Cornell Medical Center. cDNA synthesis, PCR and analysis by the ΔΔ Ct method were as described (Mavrakis, et al., 2008) and utilized Taqman Gene Expression Assays: Bcl2l11 (Mm00437796_m1), BCL2L11 (Hs00197982_m1), Pten (Mm01212532_m1), PTEN (Hs02621230_s1), Nf1 (Mm00812430_m1), NF1 (Hs01035104_m1), Ikzf1 (Mm01187878_m1), IKZF1 (Hs00172991_m1), Fbxw7 (Mm00504452_m1), FBXW7 (Hs00217794_m1), Phf6 (Mm00804415_m1), and Mouse GAPD (GAPDH) (4352932, Applied Biosystems). Expression was normalized to RNU6B (001093, Applied Biosystems).
The mouse FBXW7 (bp 2793-4139; acc. no. NM_001177773), human NF1 (bp 10033-10666; acc. no NM_000267), human PHF6 (bp position 3271-4299; acc. no. NM_001015877) and Bim (bp. 3155-4773; acc. no. NM_009754) 3′UTR fragments were generated by PCR and cloned into the psi-CHECK-2 vector (Promega) with the exception of the IKZF1 3′UTR, which was purchased from Genecopoeia (cat no. HmiT000397b, by 2343-4471 of UTR). The assays were performed as described (Xiao, et al., 2008).

miR-148: miRNA, UCAGUGCACUACAGAACUUUGU (SEQ ID NO: 8) (expressed or natural sequence; listed as Homo sapiens)
leukemia onset / leukemia-free survival (NOTCH1-induced T-ALL): significant disease acceleration | regulation of tumor suppressor genes [1]: regulate IKZF1, NF1 and FBXW7
